Laboratory results: patent US11220486B2 (La Jolla Institute of Allergy & Immunology, priority 2014, dated 2022)
Like-named read-outs stand apart in the source and are kept apart here.

Columns and labels:
[1] = Liver function: serum alanine transaminase or aspartate transaminase of treated mice; type: in vivo; conditions: mice treated 30 mg/kg daily IP
Protocol: Serum alanine transaminase or aspartate transaminase levels from mice treated with Compound D1 (ML400) or vehicle (mice shown in FIG. 10) were assessed using EnzyChrom Assay Kits from BioAssay Systems.

[2] = Kidney function: serum creatinine of treated mice; type: in vivo; conditions: mice treated 30 mg/kg daily IP
Protocol: Serum creatinine levels from mice treated with Compound D1 (ML400) or vehicle (mice shown in FIG. 9) were assessed using the QuantiChrom Creatinine Assay Kit from BioAssay Systems.

[3] = Aqueous solubility in buffer pH 5.0-7.4 and PBS; type: physicochemical
[4] = Rodent pharmacokinetics (IV, PO, IP); type: in vivo, Male C57BL/6 Mice; conditions: mouse
Protocol: The inventors also examined ML400 (also described herein as MLS-0472870 or Compound D1) for its rodent pharmacokinetics. The probe Compound D1 was profiled in Male C57BL/6 Mice, with n=3 for each group studied (IV, IP and PO arms). The formulation used was 1.00 mg/mL in DMSO:Tween80:Water=5:5:90, which gave a clear solution. […] Enterohepatic circulation was also observed for this compound. This compound has acceptable parameters for future in vivo studies (see Table 4 and FIG. 13).

[5] = test system: obese mice (glucose tolerance); assay: IPGTT in high-fat-diet obese mice; type: in vivo, Male C57BL/6 mice; conditions: 30 mg/kg daily IP, 4 weeks, HFD obese mice, 2 g glucose/kg
Protocol: Male C57BL/6 mice were maintained on HFD containing 60 kcal % fat for 3 months, followed by daily IP administration of 30 mg/kg Compound D1 or vehicle. After 4 weeks, IPGTT were performed using 2 g glucose/kg body weight. Mean±SEM is shown. *, p<0.05, Two-way ANOVA.

[6] = test system: 3T3-L1 pre-adipocytes; assay: Insulin-based 3T3-L1 adipogenesis assay (AdipoRed); type: cell-based, mouse; conditions: 10 μM
Protocol: The probe Compound D1 was also profiled in an insulin-based mouse 3T3-L1 adipogenesis assay. In this assay, 3T3-L1 pre-adipocytes are grown to 2-days post-confluence in DMEM with 10% bovine calf serum, and then induced to differentiate to adipocytes following stimulation for 2 days with an induction cocktail containing […] insulin, 1 μM dexamethasone, and 0.5 mM 3-isobutyl-1-methylxanthine in DMEM containing 10% fetal bovine serum (FBS).^44 2 days later, the media is replaced with DMEM with 10% FBS and 1 μg/ml insulin, and after 2 additional days, the media is replaced with DMEM with 10% FBS for 2 additional days, at which point adipogenesis is measured using the AdipoRed Adipogenesis Assay Reagent from Lonza, according to the manufacturer's instructions. In brief, the assay reagent is added to the wells containing cells, where it partitions into the fat droplets of differentiated adipocytes, and emits fluorescence at 572 nm that can be detected with a plate-reader. To test the effect of probe Compound D1, cells were plated into 48-well plates and allowed to grow to confluence. Cells were then treated with 10 μM Compound D1 or 0.025% DMSO, and after 2 days induced to differentiate in the presence of 10 μM Compound D1 or 0.025% DMSO. Fresh compound or DMSO was added during each media replacement.

[7] = target: LMPTP-A (Low Molecular Weight Protein Tyrosine Phosphatase-A) enzyme (Homo sapiens (Human), UniProt P24666); assay: LMPTP primary screening / LMPTP (OMFP) enzyme inhibition assay, fluorescence intensity; type: biochemical
LMPTP-A (Low Molecular Weight Protein Tyrosine Phosphatase-A) enzyme, sequence (P24666 whole entry): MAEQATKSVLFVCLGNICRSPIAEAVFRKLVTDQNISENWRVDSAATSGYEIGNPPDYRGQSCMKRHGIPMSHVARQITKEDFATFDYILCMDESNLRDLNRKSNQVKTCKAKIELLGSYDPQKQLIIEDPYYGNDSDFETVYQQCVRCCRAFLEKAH
Protocol: This assay attempts to identify inhibitors of the LMPTP-A (Low Molecular Weight Protein Tyrosine Phosphatase-A) enzyme. It is run in 1536-well format and is measured via fluorescence intensity.
A listing of materials is provided: • Item, source, catalog no. • LMPTP-A Enzyme Stock Solution (4.22 mg/ml or 206.8 μM), SBMRI Protein Facility, • N/A • OMFP, Sigma, M2629-100 MG • Bis-Tris pH 6.0, Fisher Sci, BP301-100 • Triton-X 100, Sigma, T9284 • DTT, Sigma, D9779 • Mol. Grade Water, Mediatech, Inc., 46-000-CM • 1536-well black High base opaque bottom plate, Nexus Biosystems, 00019120
Assay Procedure • 1. Prepare Reagents as described in section F. Recipe. • 2. Using LabCyte Echo, transfer 60 nL from 2 mM test compound source plate into assay plate Col. 5-48 (final concentration of test compounds is 20 μM). 60 nL of DMSO should be transferred to col. 1-4 for positive and negative control wells. • 3. Spin plates at 1000 rpm for 1 minute in centrifuge. • 4. […] Using the Bioraptr, add 3 μL/well of enzyme solution to col. 3-48. • 6. Using the Bioraptr, add 3 μL/well of substrate solution to col. 1-48. • 7. Spin plates at 1000 rpm for 1 minute in centrifuge. • 8. Incubate plates in the dark at room temperature for 50 minutes. • 9. Read plates on PerkinElmer Viewlux using a FI protocol.

[8] = test system: insulin receptor in human HepG2 hepatocytes; conditions: HepG2 cells, 10 microM overnight, 1.76 microM insulin 5 min
[9] = Hepatic microsomal stability, mouse; type: in vitro ADME
Source text: The microsomal stability assay is commonly used to rank compounds according to their metabolic stability. This assay addresses the pharmacologic question of how long the parent compound will remain circulating in plasma within the body.

COc1ccc(-c2cc(NCCCN3CCCCC3)c3ccccc3n2)cc1 [Compound D1, 2-(4-methoxyphenyl)-N-(3-(piperidin-1-yl)propyl)quinolin-4-amine]
liver function (serum alanine transaminase or aspartate transaminase) [1]: does not Affect Liver Function | kidney function (serum creatinine) [2]: does not Affect Kidney Function | solubility in PBS ([3]; PBS, compared with aqueous buffer): comparable | concentration achieved in aqueous buffer relative to IC50 ([3]; pH range of 5.0-7.4): 18-20 ×IC50 | Enterohepatic circulation [4]: observed | glucose tolerance (IPGTT) [5]: Improves Glucose Tolerance | 3T3-L1 adipogenesis [6]: completely abolished

CN(C)Cc1cccc(Nc2cc(-c3ccc(Cl)cc3F)nc3ccccc23)c1 [Compound I9, [(3-{[2-(4-chloro-2-fluorophenyl)(4-quinolyl)]amino}phenyl)methyl]dimethylamine]
IC50 ([7]; read-out: IC50): 801 to 5000 nM

CNC(=O)c1ccc(-c2cc(NCCCN3CCCCC3)c3ccccc3n2)cc1F [Compound I228]
IC50 ([7]; read-out: IC50): 801 to 5000 nM

CCN(CC)CCNC(=O)c1ccc(-c2cc(NCCCN3CCCCC3)c3ccccc3n2)cc1 [Compound I254]
IC50 ([7]; read-out: IC50): 200 to 800 nM

c1ccc(-c2cc(NCCN3CCCCC3)c3ccccc3n2)cc1 [Entry 41]
phosphorylation of the insulin receptor [8]: increases phosphorylation of the insulin receptor | Hepatic Microsome Stability % Remaining @ 1 hr [9]: 0.38%

CSCCCN1CCCCC1 [Entry 64]
IC50 ([7]; S sample: compound synthesized de novo by SBCCG, read-out: LMPTP (OMFP) (IC50)): 66900 nM
